Test results from patent publication US8816102B2, “Compounds” (Givaudan S.A., priority 2009, dated 2014).

How the values were obtained:
Design in all cases: species or system human
[1] = Use in tomato ketchup, tasted by flavourists; details: 4 flavourists
Experimental: A tomato ketchup was prepared from 19% tomato paste (28-30% dry weight), 8% of vinegar (15%), 3% of sodium chloride, 20% of sugar and 50% of water.
To one half of the batch was added 2 ppm of N-(4-heptyl) 2-(4-hydroxy-3-methyxophenol)-2-oxoacetamide (Example 5)
A batch of tomato ketchup was prepared as described in Example 12. To one half of the batch was added 20 ppm N-(4-hepthyl) 4-hydroxy-3-methoxy-mandelic amide as prepared in Example 7.

[2] = Sensory panel tasting of 0.3% NaCl solution with and without compound; details: 0.3% NaCl and 10 ppm compound; reference solution A (0.3% NaCl): salty; trained panel of 20 women
Experimental: (§1) Two solutions were prepared:
A a solution of 0.3% NaCl
B a solution of 0.3% NaCl and 10 ppm Example 1 compound
(§2) The samples were tasted by a trained sensory panel composed of 20 women aged between 30 and 60.
B a solution of 0.3% NaCl and 10 ppm Example 5 compound.

[3] = Sensory panel tasting of 0.3% NaCl and 0.03% MSG solution with and without compound; details: 0.3% NaCl, reference solution A: salty, umami, trained panel of 20 women
Experimental: as §1
A a solution of 0.3% NaCl and 0.03% MSG
B a solution of 0.3% NaCl and 0.03% MSG and 10 ppm Example 6 compound.
as §2
A a solution of 0.3% NaCl, 0.03% MSG
B a solution of 0.3% NaCl, 0.03% MSG and 10 ppm N-heptyl-2-oxo-3-phenylpropionamide as prepared in example 9.
B a solution of 0.3% NaCl, 0.03% MSG and 1 ppm N-(4-heptyl)-2-oxo-3-phenylpropionamide as prepared in example 10.
B a solution of 0.3% NaCl, 0.03% MSG and 1 ppm N-heptyl 3-methoxy-4-hydroxy-mandelic acid as prepared in Example 8.

[4] = Use in potato chips, tasted by trained sensory panel
Experimental: Plain potato chips were prepared.
One part was flavoured with 1.2% sodium chloride (sample A)
One part was flavoured with 1.2% sodium chloride and 0.3% MSG (sample b)
One part was flavoured with 1.2% sodium chloride and 2.5 ppm N-(4-heptyl)-2-(benzo[1,3]dioxol-5-yl)-2-oxo-acetamide as prepared in example 3 (sample C).
as §2

[5] = Use in tomato soup, tasted by flavourists; details: tomato soup containing 10 ppm compound; 4 flavourists
Experimental: A tomato soup mix was prepared from 9.4 g of sodium chloride, 1 g of mono sodium glutamate, 0.08 g ribonucleotides (ex yeast), 32 g of tomato powder (ex Spreda), 25.1 g of glucose, 21 g of starch (Ultrasperse 5 ex National Starch), 5 g of palm fat powder, 3 g of yeast powder, 1 g on onion powder, 0.15 g of carrot powder, 0.05 g of ground white pepper, 0.3 g celery extract powder, 0.05 g of ground laurel leaf powder, and 1.85 g of sucrose. 25 G of the well mixed ingredients was added to 250 g of boiling water and stirred until completely dissolved.
The reference soup was compared with a batch of the same soup containing 10 ppm of N-(2-hydroxyethyl)-2-(benzo[1,3]dioxol-5-yl)-2-oxoacetamide as prepared in example 2.

SMILES: CCCCCCCNC(=O)C(=O)c1ccc(O)c(OC)c1 [Example 5, N-heptyl-2-(4-hydroxy-3-methoxyphenyl)-2-oxoacetamide]
- taste of test ketchup compared with base ketchup ([1]; tomato ketchup with 2 ppm compound): clearly more umami, more sweet and more full/complex
- taste description of solution B [2]: more salty, salivating, lingering

SMILES: CCCCCCCNC(=O)C(O)c1ccc(O)c(OC)c1 (stereo not shown) [Example 8, N-heptyl-2-hydroxy-2-(4-hydroxy-3-methoxyphenyl)acetamide]
- taste description of solution B ([3]; 0.03% MSG and 1 ppm compound): salty, more umami, slightly pungent

SMILES: O=C(NCCO)C(=O)c1ccccc1 [Example 1, N-(2-hydroxyethyl)-2-oxo-2-phenylacetamide]
- taste description of solution B [2]: more salty, salivating

SMILES: N[C@@H](CCC(=O)O)C(=O)[O-].[Na+] [MSG, monosodium glutamate, reference compound]
- taste description of potato chips sample B ([4]; 1.2% sodium chloride and 0.3% MSG): salty and umami

SMILES: CCCC(CCC)NC(=O)C(=O)c1ccc2c(c1)OCO2 [Example 3, 2-(benzo[d][1,3]dioxol-5-yl)-N-(heptan-4-yl)-2-oxoacetamide]
- taste description of potato chips sample C ([4]; 1.2% sodium chloride and 2.5 ppm compound, sample A (1.2% sodium chloride): salty): salty, umami, long lasting, savoury, bouillon
- panel preference ([4]; sample C (1.2% sodium chloride and 2.5 ppm compound) versus samples A and B): preferred over the other two samples
- off-note observed ([4]; sample C, 1.2% sodium chloride and 2.5 ppm compound): slight bitter off-note

SMILES: CCCCCCCNC(=O)C(=O)Cc1ccccc1 [Example 9, N-heptyl-2-oxo-3-phenylpropanamide]
- taste description of solution B ([3]; 0.03% MSG and 10 ppm compound): salty, stronger umami, more bouillon-like

SMILES: CCCC(CCC)NC(=O)C(=O)Cc1ccccc1 [Example 10, N-(heptan-4-yl)-2-oxo-3-phenylpropanamide]
- taste description of solution B ([3]; 0.03% MSG and 1 ppm compound): salty, more umami, more bouillon-like, slightly tingling

SMILES: CC(=O)C(=O)NCCO [Example 6, N-(2-hydroxyethyl)-2-oxopropanamide]
- taste description of solution B ([3]; 0.03% MSG and 10 ppm compound): more salty, more umami

SMILES: CCCC(CCC)NC(=O)C(O)c1ccc(O)c(OC)c1 (stereo not shown) [Example 7, N-(heptan-4-yl)-2-hydroxy-2-(4-hydroxy-3-methoxyphenyl)acetamide]
- taste of test ketchup compared with base ketchup ([1]; tomato ketchup with 20 ppm compound): more umami, more bouillon-like and more full/complex

SMILES: O=C(NCCO)C(=O)c1ccc2c(c1)OCO2 [Example 2, 2-(benzo[d][1.3]dioxol-5-yl)-N-(2-hydroxyethyl)-2-oxoacetamide]
- taste of test soup compared with base soup [5]: more umami, was more lingering and was more complex
